Data taken from patent US4803275A, “2-oxo-5-methyl-6-[4-heptene]-2H-pyrano[3,2-c]pyridine” (Takeda Chemical Industries, Ltd., priority 1986, dated 1989).
Converted amounts (≈) assume the structure as drawn.

Legend:
[1] = system: Candida krusei IFO 1395; assay: Antimicrobial activity; type: cell-based; settings: Pichia kudriavzevii, IFO1395, TSA medium containing 1% glucose, read-out: Minimum Inhibitory Concentration (MIC)
[2] = system: Aspergillus niger IFO 4066; assay: Antimicrobial activity; type: cell-based; settings: IFO4066, TSA medium containing 1% glucose, read-out: Minimum Inhibitory Concentration (MIC)
[3] = system: Cryptococcus neoformans IFO 0410; assay: Antimicrobial activity; type: cell-based; settings: IFO0410, TSA medium containing 1% glucose, read-out: Minimum Inhibitory Concentration (MIC)
[4] = system: Proteus vulgaris IFO 3045; assay: Antimicrobial activity; type: cell-based; settings: IFO3045, TSA medium containing 1% glucose, read-out: Minimum Inhibitory Concentration (MIC)
[5] = system: Candida utilis IFO 0619; assay: Antimicrobial activity; type: cell-based; settings: Williopsis jadinii, IFO0619, TSA medium containing 1% glucose, read-out: Minimum Inhibitory Concentration (MIC)
[6] = system: Saccharomyces cerevisiae IFO 0209; assay: Antimicrobial activity; type: cell-based; settings: IFO0209, TSA medium containing 1% glucose, read-out: Minimum Inhibitory Concentration (MIC)
[7] = system: Bacillus cereus IFO 3514; assay: Antimicrobial activity; type: cell-based; settings: IFO3514, TSA medium containing 1% glucose, read-out: Minimum Inhibitory Concentration (MIC)
[8] = system: Candida albicans IFO 0583; assay: Antimicrobial activity; type: cell-based; settings: IFO0583, TSA medium containing 1% glucose, read-out: Minimum Inhibitory Concentration (MIC)
[9] = system: Penicillium chrysogenum IFO 4626; assay: Antimicrobial activity; type: cell-based; settings: IFO4626, TSA medium containing 1% glucose, read-out: Minimum Inhibitory Concentration (MIC)
[10] = Acute toxicity, single intraperitoneal dose in mice; settings: mouse, in vivo, ip
[11] = system: Staphylococcus aureus FDA 209 P; assay: Antimicrobial activity; type: cell-based; settings: FDA209, TSA medium containing 1% glucose, read-out: Minimum Inhibitory Concentration (MIC)
[12] = system: Candida parakrusei IFO 0640; assay: Antimicrobial activity; type: cell-based; settings: IFO0640, TSA medium containing 1% glucose, read-out: Minimum Inhibitory Concentration (MIC)
[13] = system: Trichophyton rubrum IFO 5467; assay: Antimicrobial activity; type: cell-based; settings: IFO5467, TSA medium containing 1% glucose, read-out: Minimum Inhibitory Concentration (MIC)
[14] = system: Escherichia coli K 12; assay: Antimicrobial activity; type: cell-based; settings: K12, TSA medium containing 1% glucose, read-out: Minimum Inhibitory Concentration (MIC)
[15] = system: Trichophyton mentagrophytes IFO 7522; assay: Antimicrobial activity; type: cell-based; settings: IFO7522, TSA medium containing 1% glucose, read-out: Minimum Inhibitory Concentration (MIC)
[16] = system: Candida parapsilosis IFO 1396; assay: Antimicrobial activity; type: cell-based; settings: Lodderomyces parapsilosis, IFO1396, TSA medium containing 1% glucose, read-out: Minimum Inhibitory Concentration (MIC)
[17] = system: Rhodotorula rubra IFO 0907; assay: Antimicrobial activity; type: cell-based; settings: IFO0907, TSA medium containing 1% glucose, read-out: Minimum Inhibitory Concentration (MIC)
[18] = system: Pseudomonas aeruginosa IFO 3080; assay: Antimicrobial activity; type: cell-based; settings: IFO3080, TSA medium containing 1% glucose, read-out: Minimum Inhibitory Concentration (MIC)
[19] = system: Candida tropicalis IFO 0006; assay: Antimicrobial activity; type: cell-based; settings: IFO0006, TSA medium containing 1% glucose, read-out: Minimum Inhibitory Concentration (MIC)
[20] = system: synthesis of fatty acid (rat liver homogenates); assay: Inhibitory activity of the synthesis of fatty acid (rat liver homogenates, 1-14C-acetate); type: biochemical, rat (SD-strain); settings: vs. no addition of the inhibiting agent, 37° C., 60 min
Description: Determination of the Inhibitory activity of the synthesis of fatty acid was conducted by using homogenates prepared from rat livers. Preparation of the rat liver homogenates, composition of the reaction solution for determination of inhibitory activity and method of the determination were in accordance with the method by J. Iliffe et al. described on "Biochemical Journal" 91, 369 (1964) and the method by T. Kariya et al. described on "Biochemical and Biophysical Research Communications" 80, 1022 (1978). More specifically, SD-strain male rats (6-week old) had been fasted for 2 days and then refed for 24 hours. They were killed by blood letting. The livers were then removed immediately, to which was added a 0.25M sucrose solution containing 2 mM EDTA, 5 mM nicotinamide and 1 mM 2-mercaptoethanol so that the final volume of the solution may be 4 ml relative to 1 g of the wet weight of the livers. […]
Into a 10 ml flask containing 1.85 ml of a reaction mixture consisting of 45 mM of tris-HCl buffer (pH 7.4), 10 mM of KHCO3, 4 mM of MgCl2, 45 mM of KCl, 5 mM of K2 HPO4, 15 mM of potassium citrate, 1 mM of NADP, 2 mM of ATP, 5 mM of glucose-6-phosphate, 0.4 mM of coenzyme A, 5 mM of dithiothreitol and 0.5 ml of the enzyle solution, was blown a mixture gas (95% O2 :5% CO2). […] The radio-activity extracted into the petroleum ether layer was measured.

[21] = system: Bacillus subtilis PCI 219; assay: Antimicrobial activity; type: cell-based; settings: PCI219, TSA medium containing 1% glucose, read-out: Minimum Inhibitory Concentration (MIC)
[22] = Solubility; type: physicochemical
[23] = system: Pyricularia oryzae P-18; assay: microbe, parasite or virus in culture; type: cell-based; settings: P18, read-out: Minimum Inhibitory Concentration (MIC)

**Q.** For `CCC/C=C/CCC1Oc2cc[nH]c(=O)c2C=C1C` (stereo not drawn) [FA-4283], which MIC [1] is on record?
**A.** > 100 µg/mL

**Q.** And the MIC [2]?
**A.** > 100 µg/mL

**Q.** And the MIC [3]?
**A.** 25 µg/mL (≈ 96.4 µM)

**Q.** What about the MIC [4] of the same compound?
**A.** > 100 µg/mL

**Q.** And the MIC [5]?
**A.** 3.13 µg/mL (≈ 12.1 µM)

**Q.** And the MIC [6]?
**A.** > 100 µg/mL

**Q.** And the MIC [7]?
**A.** > 100 µg/mL

**Q.** And the MIC [8]?
**A.** 3.13 µg/mL (≈ 12.1 µM)

**Q.** What about the MIC [9] of the same compound?
**A.** > 100 µg/mL

**Q.** And the LD50 [10]?
**A.** ≥ 400 mg/kg

**Q.** What about the MIC [11] of the same compound?
**A.** > 100 µg/mL

**Q.** What about the MIC [12] of the same compound?
**A.** > 100 µg/mL

**Q.** And the MIC [13]?
**A.** 6.25 µg/mL (≈ 24.1 µM)

**Q.** What about the MIC [14] of the same compound?
**A.** > 100 µg/mL

**Q.** What about the MIC [15] of the same compound?
**A.** 6.25 µg/mL (≈ 24.1 µM)

**Q.** And the MIC [16]?
**A.** > 100 µg/mL

**Q.** And the MIC [17]?
**A.** 0.39 µg/mL (≈ 1.5 µM)

**Q.** And the MIC [18]?
**A.** > 100 µg/mL

**Q.** What about the MIC [19] of the same compound?
**A.** 50 µg/mL (≈ 193 µM)

**Q.** What about the “inhibitory activity of the synthesis of fatty acid” value ([20]; 5×10^-4 M) of the same compound?
**A.** 97%

**Q.** What about the “inhibition of the synthesis of fatty acid” value ([20]; 10^-3 M) of the same compound?
**A.** 98%

**Q.** And the MIC [21]?
**A.** > 100 µg/mL

**Q.** What about the Solubility ([22]; chloroform) of the same compound?
**A.** readily soluble

**Q.** And the Solubility ([22]; diethyl ether)?
**A.** soluble

**Q.** And the Solubility ([22]; dimethyl sulfoxide)?
**A.** readily soluble

**Q.** And the Solubility ([22]; dimethyl-formamide)?
**A.** readily soluble

**Q.** What about the Solubility ([22]; ethanol) of the same compound?
**A.** readily soluble

**Q.** And the Solubility ([22]; ethyl acetate)?
**A.** soluble

**Q.** And the Solubility ([22]; methanol)?
**A.** readily soluble

**Q.** And the Solubility ([22]; n-hexane)?
**A.** sparingly soluble

**Q.** And the Solubility ([22]; petroleum ether)?
**A.** sparingly soluble

**Q.** And the Solubility ([22]; water)?
**A.** insoluble

**Q.** What about the MIC [23] of the same compound?
**A.** 3.18 µg/mL (≈ 12.3 µM)
